Test results from patent US5239110A, “Phenylcyclohexanol derivatives as agents for treating CNS disorders” (Sterling Winthrop, Inc., priority 1992, dated 1993).

System: sigma receptors
Assay: sigma receptor binding, [3H]di(2-tolyl)guanidine (DTG) assay
Parameters: species or system guinea pig (male Hartley), brain tissue
Details: [3H]DTG approx. 4 nM, 25° C., 90 min, guinea pig brain membranes; for Ki: pH 7.4
Procedure: Brain tissue was prepared from male Hartley guinea pigs (Hazelton Labs, Denver, PA) which were anesthetized with CO2 and sacrificed by decapitation. All animal care and use procedures were in accord with the "Guide for the Care and Use of Laboratory Animals" (NIH Publ. No. 86-23, 20 1985). Homogenization was performed in 10 volumes (wt/vol) of 0.32 M sucrose with a Brinkmann Polytron at setting 5, 30 sec. The homogenate was centrifuged at 900×g for 10 min at 4° C., and the supernatant was collected and centrifuged at 22,000×g for 20 min at 4° C. The pellet was resuspended in 10 volumes of Tris-HCl buffer (50 mM, pH 7.4), incubated at 37° C. for 30 min and centrifuged at 22,000×g for 20 min at 4° C. Following this, the pellet was resuspended in Tris buffer and frozen in 5-10 mL aliquots corresponding to a tissue concentration of 100 mg/mL at -70° C. Binding characteristics of the membranes were stable for at least one month when stored at -70° C.
On the day of the assay, membrane aliquots were thawed, resuspended in fresh Tris buffer and stored on ice until use. Each assay tube contained 100 μL of [3H](+)pentazocine at a final concentration of approximately 0.5 nM, [3H]di(2-tolyl)guanidine (DTG) at a final concentration of approximately 4 nM, 100 μL of various concentrations of the compounds of interest, 500 μL of the tissue suspension and 300 μL of buffer to a final assay volume of 1 mL and a final tissue concentration of approximately 8 mg/tube, corresponding to approximately 0.15 mg protein/tube. Nonspecific binding was defined by addition of a final concentration of 1 μM haloperidol to blank tubes for [^3 H]+pentazocine assay or by addition of a final concentration of 10 μM haloperidol to blank tubes for [^3 H]DTG assay. All tubes were incubated at 37° C. for 150 minutes ([^3 H]+pentazocine) or at 25° C. for 90 min ([3H]DTG) before termination of the reaction by filtration over Whatman GF/B glass fiber filters that were presoaked in a solution of 0.5% polyethyleneimine for at least 1 hr prior to use. Filters were washed with three 4 mL volumes of cold Tris-HCl buffer.
Following addition of scintillation cocktail, samples were allowed to equilibrate for at least 4 hr. The amount of bound radioactivity was determined by liquid scintillation spectrometry using a Beckman LS 5000 TA liquid scintillation counter with an efficiency for tritium of approximately 60%.
Data obtained on the compounds in the di(2-tolyl)guanidine (DTG) and d-pentazocine (+pent) assays, expressed as a Ki value in nM or % inhibition at 10 nM, are as follows: […]

Compound | DTG % inhib (10 nM) (at 10 nM) [%] | Ki [µM]
CN(C)C1CCC(O)(c2ccccc2)CC1 (stereo not shown) [Example 1, 4-(Dimethylamino)-1-phenylcyclohexanol] | 61 | –
CC(=O)O[C@]1(c2ccccc2)CC[C@H](N(C)C)CC1 [Example 2, cis-4-(dimethylamino)-1-phenylcyclohexylacetate] | – | 5
CCC(=O)O[C@]1(c2ccccc2)CC[C@H](N(C)C)CC1 [Example 3, cis-4-(dimethylamino)-1-phenylcyclohexyl propionate] | – | 0.288
CCC(=O)O[C@]1(c2ccccc2)CC[C@@H](N(C)C)CC1 [Example 4, trans-4(dimethylamino)-1-phenylcyclohexyl propionate] | – | 4.08
